{"source": "patent US10370378B2", "about": "“Treatment of sleep disorders” (Evotec International GmbH, priority 2007, dated 2019)", "key": {"[1]": {"system": "primary insomnia, subjects at least 65 years old", "assay": "Example 4: placebo-controlled parallel group study, 7 nights dosing, elderly subjects with primary insomnia", "assay_type": "in vivo, human", "settings": "for Number of subjects with any event (%): number (percent); for Adjusted mean LPS / Adjusted mean TST / Adjusted mean WASO: PSG, average of nights 1, 6 and 7; for LPS % change from placebo / WASO % change from placebo: decrease; for TST % change from placebo: increase", "protocol": "A randomized, double-blind, placebo-controlled parallel group design was used to assess the hypnotic efficacy of 1.5 mg and 2.5 mg doses of the compound of formula (II) following 7 nights dosing using 149 subjects. The study was conducted in 20 sleep laboratories in the United States using both objective and subjective measures. PSG data was collected on nights 1, 6 and 7 and results are based on the mean data from these three nights. The compound of formula (II) was administered in free base form as a powder in a capsule.\nThe subjects were males and females at least 65 years old with a documented diagnosis of primary insomnia (DSM-IV criteria). These subjects' typical bed time was between 9 pm and 1 am with at least 7 hours in bed. These subjects reported five nights or more in seven days with TST of not more than 6.5 hours with at least 7 hours in bed. […] On screening using PSG for 2 nights, mean TST was 240-420 minutes. Mean latency in Multiple Sleep Latency Test (MSLT) was at least 5.5 minutes and not more than 14 minutes.\nPSG was used to obtain TST (average of nights 1, 6 and 7). The daytime function (day 8) was measured using Psychomotor Vigilance Task (PVT), MSLT (MSLT Clinical Guidelines; Sleep, 1(3): 260-276 (1992)), Karolinska Sleepiness Scale (KSS); and objective measures Rey Auditory Verbal Learning Test (RAVLT) (day 8) (assessed 30±10 minutes after lights-on). Sleep architecture, subject reported sleep variables and categorical rating of sleep quality and safety endpoints including the Benzodiazepine Withdrawal Questionnaire were also determined."}, "[2]": {"target": "T1, α1β2γ2 GABAA receptors (Rattus norvegicus, UniProt P18508+P62813)", "T1 construct": "expressed in transfected cells; host or cells: Xenopus laevis oocytes, cRNA microinjection", "T1 sequence (P62813 28-455)": "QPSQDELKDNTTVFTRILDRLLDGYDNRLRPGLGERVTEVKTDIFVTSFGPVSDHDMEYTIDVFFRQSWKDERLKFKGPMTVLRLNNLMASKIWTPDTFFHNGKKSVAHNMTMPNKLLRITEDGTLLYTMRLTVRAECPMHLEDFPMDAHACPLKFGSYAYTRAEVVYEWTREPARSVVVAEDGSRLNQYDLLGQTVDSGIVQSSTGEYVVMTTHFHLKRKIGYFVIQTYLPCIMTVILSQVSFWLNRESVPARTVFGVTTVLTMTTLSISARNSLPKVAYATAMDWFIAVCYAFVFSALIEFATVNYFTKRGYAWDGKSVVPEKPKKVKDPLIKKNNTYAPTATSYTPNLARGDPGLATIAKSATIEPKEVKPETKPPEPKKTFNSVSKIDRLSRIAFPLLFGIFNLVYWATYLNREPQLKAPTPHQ", "T1 sequence (P63138 25-474 partner limits assumed)": "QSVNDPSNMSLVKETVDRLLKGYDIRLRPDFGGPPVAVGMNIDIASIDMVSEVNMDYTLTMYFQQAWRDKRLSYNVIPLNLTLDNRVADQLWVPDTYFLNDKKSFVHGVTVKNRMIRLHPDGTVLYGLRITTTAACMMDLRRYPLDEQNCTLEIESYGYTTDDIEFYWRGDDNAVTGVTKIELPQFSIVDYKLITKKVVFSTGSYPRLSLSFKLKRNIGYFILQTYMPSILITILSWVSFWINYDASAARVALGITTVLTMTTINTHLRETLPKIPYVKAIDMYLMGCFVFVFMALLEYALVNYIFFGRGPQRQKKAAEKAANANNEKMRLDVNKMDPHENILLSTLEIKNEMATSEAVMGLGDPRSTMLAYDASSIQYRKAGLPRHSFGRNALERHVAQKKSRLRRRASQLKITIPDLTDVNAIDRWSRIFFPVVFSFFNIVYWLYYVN", "T1 sequence (P18508 39-466)": "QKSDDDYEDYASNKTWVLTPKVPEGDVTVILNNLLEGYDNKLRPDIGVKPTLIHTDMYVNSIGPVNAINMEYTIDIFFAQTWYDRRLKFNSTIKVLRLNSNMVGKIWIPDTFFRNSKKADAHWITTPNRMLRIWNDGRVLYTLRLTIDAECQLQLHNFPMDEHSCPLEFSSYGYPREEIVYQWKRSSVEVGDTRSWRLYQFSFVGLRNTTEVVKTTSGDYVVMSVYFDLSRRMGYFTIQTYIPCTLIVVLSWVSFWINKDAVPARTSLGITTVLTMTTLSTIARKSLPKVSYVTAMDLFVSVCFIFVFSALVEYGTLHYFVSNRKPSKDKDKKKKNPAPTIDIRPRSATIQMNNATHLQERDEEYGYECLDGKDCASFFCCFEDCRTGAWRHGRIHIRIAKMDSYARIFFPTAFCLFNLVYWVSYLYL", "assay": "Stimulation of currents elicited by GABA (EC3-5), two-electrode voltage clamp, receptors expressed in Xenopus oocytes", "assay_type": "cell-based", "source_text": "7-Chloro-3-(5-dimethylaminomethyl-[1,2,4]oxadiazol-3-yl)-5-methyl-4,5-dihydro-imidazol[1,5,-a][1,4]benzodiazepine-6-one was used to test the effects of the compound of formula (II): […]\nSimilar procedures were chosen as for the investigation of other GABAA receptor subunit specific substances (e.g., Baur et al., 2005; Mol. Pharmacol. 68, 787-792).\nLobes of the ovary containing the follicles were obtained by surgical procedures from female Xenopus laevis. Follicles were singled out using a platinum loop. Fifty nL of cRNA solution at a ratio of αx:β2:γ2 of 1:1:5 (3.3-10 nM αx (x=1, 2, 3, 5); 3.3-10 nM β2; 16.7-50 nM γ2) (Boileau et al., 2002; Neuropharmacology 43, 695-700) were microinjected into Xenopus follicles. Several hours after microinjection the follicles were freed of follicular layers and adhering connective tissue by a collagenase/hypertonic shock procedure (Sigel, 1987; J. Physiol. (Land) 386, 73-90). Oocytes were kept at constant 18° C. until measurement (1-4 days) in a modified Barth solution (88 mM NaCl, 1 mM KCl, 2.4 mM NaHCO3, 10 mM Hepes-NaOH (pH 7.5), 0.82 mM MgSO4×7H2O, 0.34 mM Ca(NO3)2×4H2O, 0.41 mM CaCl2×2H2O, 100 U Penicillin/mL, 100 μg Streptomycin/mL, sterile filtered).\nCurrents were measured using a home-built amplifier in combination with a xy-recorder or were digitized using a MacLab/200 (AD Instruments) and stored on a computer. Xenopus oocytes were voltage clamped using the two-electrode voltage clamp technique (electrode resistance about 0.8 MΩ) at −80 mV. The medium contained 90 mM NaCl, 1 mM KCl, 1 mM MgCl2, 1 mM CaCl2, 10 mM Na-Hepes (pH 7.4) and 0.5% DMSO.\nGABA was applied for 20-50 seconds without or in combination with other drugs and a washout period of 4 minutes was allowed to ensure full recovery from desensitization, which was experimentally determined. The perfusion solution (6 mL/min) was applied through a glass capillary with an inner diameter of 1.35 mm, the mouth of which was placed about 0.4 mm from the surface of the oocyte. The rate of solution change under our conditions has been estimated 70% within less than 0.5 s (Sigel et al., 1990; Neuron 5, 703-711). The entire perfusion system and the assay chamber were cleaned between drug applications by washing with DMSO.\nData is given as mean±SD, except in the figures where data is shown for clarity as mean±SEM. Current stimulation was calculated as follows: stimulation (%)=((I(GABA+modulator)−I(GABA))/I(GABA))×100%, where I is the current amplitude. Where indicated, the stimulation was standardized to the stimulation by 1 μM diazepam (100%). To obtain FIGS. 1-4, values for current stimulation obtained at a given concentration of modulator at a given subunit combination were averaged. The data points were fitted with the equation stimulation=efficacy/(1+(potency/concentration of modulator)). The values given in the Tables (Summary) are obtained by fitting individual curves and subsequently averaging efficacy and potency. […]\nGABA was then applied in combination with various concentrations of the compound of formula (II) between 0.3 nM and 3,000 nM to produce a cumulative concentration response curve. […] In each batch of oocytes the stimulation by 1 μM diazepam was determined in five oocytes, extent of stimulation averaged and defined as 100%. Where indicated, stimulation by the compound of formula (II) in each batch of oocytes was expressed as a percentage of this value in the corresponding batch. […]"}, "[3]": {"settings": "1.5 mg and 2.5 mg, across 7 nights"}}, "note": "“Also recorded” adds a separate entry of the source.", "data": [{"smiles": "CN(C)Cc1nc(-c2ncn3c2CN(C)C(=O)c2c(Cl)cccc2-3)no1", "note": "[compound of formula (II), 7-chloro-3-(5-dimethylaminomethyl-[1,2,4]oxadiazol-3-yl)-5-methyl-4,5-dihydro-imidazo[1,5-a][1,4]benzodiazepine-6-one]", "values": [{"measurement": "increase of mean TST compared to placebo", "setting": "[1]; 1.5 mg", "result": 30.9, "unit": "min"}, {"measurement": "Dizziness, number of subjects (%)", "setting": "[1]; 1.5 mg (n = 53)", "result": "3 (5.7)"}, {"measurement": "Headache, number of subjects (%)", "setting": "[1]; 1.5 mg (n = 53)", "result": "5 (9.4)"}, {"measurement": "Somnolence, number of subjects (%)", "setting": "[1]; 1.5 mg (n = 53)", "result": "1 (1.9)"}, {"measurement": "Number of subjects with any event (%)", "setting": "[1]; 1.5 mg (n = 53)", "result": "15 (28.3)"}, {"measurement": "safety and tolerability", "setting": "[1]; 1.5 mg and 2.5 mg doses, elderly", "result": "safe and well-tolerated"}, {"measurement": "sTST", "setting": "[1]; [3]", "result": "significant increase"}, {"measurement": "sWASO", "setting": "[1]; [3]", "result": "significant decrease"}, {"measurement": "subject-reported sleep onset latency", "setting": "[1]; [3]", "result": "significant reduction"}, {"measurement": "Adjusted mean LPS", "setting": "[1]; 1.5 mg", "result": 30.5, "unit": "min"}, {"measurement": "Adjusted mean TST", "setting": "[1]; 1.5 mg", "result": 369.5, "unit": "min"}, {"measurement": "Adjusted mean WASO", "setting": "[1]; 1.5 mg", "result": 86.2, "unit": "min"}, {"measurement": "LPS % change from placebo", "setting": "[1]; 1.5 mg", "result": 34, "unit": "%"}, {"measurement": "WASO % change from placebo", "setting": "[1]; 1.5 mg", "result": 15, "unit": "%"}, {"measurement": "total wake time hour by hour", "setting": "[1]; 1.5 mg, each hour up to hour 6", "result": "significantly reduced"}, {"measurement": "TST % change from placebo", "setting": "[1]; 1.5 mg", "result": 9, "unit": "%"}, {"measurement": "WASO in the second half of the night (5-8 hours after lights out)", "setting": "[1]; 2.5 mg", "result": "significant decrease"}, {"measurement": "increase of mean TST compared to placebo", "setting": "[1]; 2.5 mg", "result": 56.4, "unit": "min"}, {"measurement": "Dizziness, number of subjects (%)", "setting": "[1]; 2.5 mg (n = 52)", "result": "5 (9.6)"}, {"measurement": "Headache, number of subjects (%)", "setting": "[1]; 2.5 mg (n = 52)", "result": "3 (5.8)"}, {"measurement": "Somnolence, number of subjects (%)", "setting": "[1]; 2.5 mg (n = 52)", "result": "6 (11.5)"}, {"measurement": "Number of subjects with any event (%)", "setting": "[1]; 2.5 mg (n = 52)", "result": "19 (36.5)"}, {"measurement": "Adjusted mean LPS", "setting": "[1]; 2.5 mg", "result": 26.5, "unit": "min"}, {"measurement": "Adjusted mean TST", "setting": "[1]; 2.5 mg", "result": 395, "unit": "min"}, {"measurement": "Adjusted mean WASO", "setting": "[1]; 2.5 mg", "result": 65.3, "unit": "min"}, {"measurement": "LPS % change from placebo", "setting": "[1]; 2.5 mg", "result": 43, "unit": "%"}, {"measurement": "WASO % change from placebo", "setting": "[1]; 2.5 mg", "result": 36, "unit": "%"}, {"measurement": "TWT hour by hour", "setting": "[1]; 2.5 mg, every hour except hour 7", "result": "significantly reduced"}, {"measurement": "TST % change from placebo", "setting": "[1]; 2.5 mg", "result": 17, "unit": "%"}, {"measurement": "residual sedation, subject reported", "setting": "[1]; 30 minutes post wake time (approximately 9 hours post dose)", "result": "no residual sedation"}, {"measurement": "KSS (subjective) versus placebo", "setting": "[1]; day 8", "result": "no significant difference"}, {"measurement": "MSLT average sleep latency over all timepoints (2, 4, 6, 8 & 10 hours post wake time)", "setting": "[1]; day 8, daytime function", "result": "increased"}, {"measurement": "Benzodiazepine Withdrawal Questionnaire versus placebo", "setting": "[1]; either dose", "result": "No significant difference"}, {"measurement": "PVT or RAVLT versus placebo", "setting": "[1]; either dose, day 8", "result": "no significant differences"}, {"measurement": "sleep architecture (PSG)", "setting": "[1]; human, in vivo", "result": "generally preserved sleep architecture"}, {"measurement": "subjective sleep quality", "setting": "[1]; over all 7 nights of dosing", "result": "sustained improvement"}, {"measurement": "Intrinsic activity / type of allosteric modulation", "setting": "[2]; GABAA receptor benzodiazepine site", "result": "partial agonist; also recorded: partial positive allosteric modulator"}, {"measurement": "Receptor subtype preference in comparison to α5β2γ2, α3β2γ2 and α2β2γ2", "setting": "[2]; concentrations <100 nM", "result": "preference for α1β2γ2 GABAA receptors"}]}]}
